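Test compounds were applied to cells in 96-well plates for 48 hours at 5 doses. Here, GI50 denotes the concentration required for 50% inhibition of growth. TGI marks complete inhibition of growth.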
Columns and labels:
Experiment in all cases: NCI tumour cell line growth inhibition, 48 h
[1] = system: LXFL 529 NSCLC
[2] = system: UACC-62 melanoma
[3] = system: OVCAR-5 ovarian
[4] = system: HOP-92 NSCLC
[5] = system: COLO 205 colon
[6] = system: 786-0 renal
[7] = system: CCRF-CEM leukemia
[8] = system: SW-620 colon
[9] = system: DMS 273 small cell lung
[10] = system: MDA-MB-435

Structure (SMILES)	TGI [1]	TGI [2]	TGI [3]	TGI [4]	TGI [5]	TGI [6]	TGI [7]	TGI [8]	TGI [9]	GI50 [2]	GI50 [3]	GI50 [4]	GI50 [10]	TGI [10]	GI50 [5]	GI50 [6]	GI50 [7]	GI50 [8]
Cc1ccccc1NC(=O)c1[nH]c(=S)nc(N)c1-c1ccccc1C	> 100 µM	> 100 µM	> 100 µM	> 100 µM	> 100 µM	> 100 µM	> 100 µM	> 100 µM	> 100 µM									
CC(=O)O[C@H]1CC[C@@]2(C)C(=CC[C@@H]3C2CC[C@]2(C)Nc4oncc4CC32)C1 (stereo partly specified)	26.5 µM	99 µM	> 100 µM			> 100 µM	23 µM	> 100 µM	73.5 µM									
O=Nc1c(-c2cccc([N+](=O)[O-])c2)nc2ncccn12		29.3 µM	39.1 µM	21.6 µM	19.9 µM	54.7 µM	4.44 µM	6.03 µM		14.4 µM	18.5 µM	3.19 µM	13.7 µM	36.4 µM	6.25 µM	17.6 µM	1.86 µM	2.08 µM
CC1=C(C)C(=O)C(C(C)C2=C(C)C(=O)C(C)=C(C)C2=O)=C(C)C1=O		> 100 µM	> 100 µM	39.7 µM	> 100 µM	> 100 µM	50.7 µM	29.8 µM		19.3 µM	47 µM	13.8 µM	39.4 µM	> 100 µM	32.6 µM	50.8 µM	20.1 µM	15.7 µM
Nc1nc(Cl)nc2c1ncn2C1O[C@H](CO)[C@@H](O)[C@@H]1F (stereo partly specified)		> 100 µM	> 100 µM	4.8 µM	> 100 µM	0.486 µM	> 100 µM	> 100 µM		0.362 µM	3 µM	0.0653 µM	0.485 µM	> 100 µM	0.523 µM	0.092 µM	0.0281 µM	0.888 µM
CCOC1NC(=O)Oc2ccccc21 (stereo unspecified)		> 100 µM	> 100 µM	> 100 µM	> 100 µM	> 100 µM	> 100 µM	> 100 µM						> 100 µM				
O=C1c2cc3c(cc2-c2c1c1ccc([N+](=O)[O-])cc1c(=O)n2CCCCl)OCO3		2.5 µM	> 100 µM	> 100 µM	> 100 µM	> 100 µM	> 100 µM	> 100 µM		0.176 µM	0.634 µM		1.22 µM	> 100 µM	0.567 µM	0.198 µM	0.279 µM	0.263 µM
Cc1cc(Cl)ccc1NC(=O)C1C(=O)N(c2ccc(Cl)cc2C)C(=O)/C1=N\N (stereo unspecified)	> 100 µM	> 100 µM	> 100 µM	> 100 µM	> 100 µM	> 100 µM	> 100 µM	> 100 µM										
CCOc1ccc2c(c1)/C(=C\C=C\C1CC(C)C3CC(OCC)CCC3N1CC)CC(C)N2CC (stereo unspecified)		2.77 µM	2.64 µM	2.58 µM	2.82 µM	2.98 µM	2.71 µM	2.59 µM		1.26 µM	1.23 µM	1.21 µM	0.905 µM	2.31 µM	1.36 µM	1.49 µM	0.472 µM	0.73 µM
NC(=O)NC(=O)CI		18.7 µM	26.1 µM	3.89 µM	3.73 µM	13.5 µM	2.31 µM	3.57 µM		5.38 µM	11.3 µM	1.65 µM	4.02 µM	15.9 µM	1.91 µM	4.7 µM	0.757 µM	1.68 µM
Cc1cc(S(N)(=O)=O)c(S/C(=N\NS(=O)(=O)c2ccc(Cl)cc2)c2ccc(Cl)cc2)cc1Cl		> 100 µM	> 100 µM	> 100 µM	> 100 µM	> 100 µM	> 100 µM	> 100 µM		> 100 µM	> 100 µM	> 100 µM	> 100 µM	> 100 µM	85.2 µM	> 100 µM	61 µM	> 100 µM
CC(C)(C)c1ccccc1NS(=O)(=O)c1ccccc1	> 100 µM	> 100 µM	> 100 µM			> 100 µM	> 100 µM	> 100 µM	> 100 µM									
Cc1cc2c(=O)cc(-c3ccc(Cl)cc3)oc2c(C(=O)O)c1C	> 100 µM	> 100 µM	> 100 µM		> 100 µM	> 100 µM	> 100 µM	> 100 µM	> 100 µM									
Cn1cccc1-c1cc(-c2ccc(Br)cc2)nc(N)c1C#N		> 100 µM	> 100 µM	> 100 µM	> 100 µM	> 100 µM	> 100 µM	> 100 µM		33.3 µM	> 100 µM	47.8 µM	> 100 µM	> 100 µM	> 100 µM	> 100 µM	> 100 µM	> 100 µM
O=C(/C=C/c1ccccc1F)C(c1ccccc1)c1ccccc1	12 µM	4.56 µM		8.72 µM		5.8 µM	6.32 µM	11.5 µM	38.1 µM									
COc1ccccc1Nc1nc(-c2cc3cccc(C(F)(F)F)c3oc2=O)cs1		> 81.6 µM	> 100 µM	33.1 µM	0.522 µM	> 42.9 µM	> 100 µM	> 100 µM		0.154 µM	0.572 µM	0.112 µM	0.0297 µM	0.164 µM	0.172 µM	0.218 µM	0.291 µM	0.144 µM
O=C(NC(=S)NS(=O)(=O)c1ccc(N2N=C3c4ccccc4CC3C2c2cccs2)cc1)c1ccccc1 (stereo unspecified)		36.8 µM	71.7 µM	> 100 µM	> 100 µM	> 100 µM	> 100 µM	> 100 µM		14.6 µM	18.7 µM	53.1 µM	21.7 µM	60.6 µM	38.4 µM	27.9 µM	27.9 µM	34.8 µM
CC(C)(C)c1ccc(-c2nnc(SCc3ccc(Cl)cc3)n2-c2cccc(C(F)(F)F)c2)cc1		> 100 µM	> 96.1 µM	> 100 µM	23.4 µM	> 100 µM	> 100 µM	> 100 µM						> 100 µM				

— PubChem BioAssay (NCI)
